Experimental data: EP0489877B1, “ANTIATHEROSCLEROTIC AND ANTITHROMBOTIC 2-AMINO-6-PHENYL-4H-PYRAN-4-ONES” (THE UPJOHN COMPANY, priority 1990, dated 1992)

Experiments:
fibroblasts = experiment: Antiproliferative assay (inhibition of cell proliferation, procedure of Pledger et al.); format: cell-based; settings: for EC50: Fibroblast; for Antiproliferative Assay Data Inhibition (%): percent inhibition at the maximum concentration tested
Excerpt: The compounds of Formula I are active as inhibitors of cell proliferation as shown in Table 1 by the test procedure described in Pledger W.J., Stiles C.D., Antniades H.N., Scher C.D., (Proc. Natl. Acad. Sci (USA) (1977). In addition, various compounds of Formula I are also inhibitors of ADP induced platelet aggregation and are useful in the prevention or treatment of thrombotic diseases and related complications by, for example, inhibition or reversal of platelet aggregation, or platelet adhesion or blood coagulation. […]

[1] = system: ADP induced platelet aggregation; experiment: Inhibition of ADP-induced platelet aggregation (procedure of Born and Cross); format: cell-based; settings: for inhibition at 10 µg/mL: read-out: Inhibition of Platelet Aggregation 10 ug/ml; for inhibition at 30 µg/mL: read-out: Inhibition of Platelet Aggregation 30 ug/ml
Protocol: Most compounds of Formula I are active as inhibitors of platelet aggregation as shown in Table 1 by the test procedure described in Born, G.R., Cross M.J., J. Physiol., 168, p. 178 (1963).
Also, reported is the percent inhibition of platelet aggregation at 10ug/ml and 30 ug/ml concentrations.

Structure (SMILES) | EC50 (fibroblasts) | Antiproliferative Assay Data Inhibition (%) (fibroblasts) | inhibition at 10 µg/mL [1] | inhibition at 30 µg/mL [1] | antiproliferation or inhibition activity (in words) (fibroblasts)
CC(C)(C)C(=O)COc1ccc(-c2cc(=O)cc(N3CCOCC3)o2)cc1 [Compound 4, 2-(4-(3,3-Dimethyl-2-oxobutoxy)phenyl)-6-(4-morpholinyl)-4H-pyran-4-one] | 9.4 µM | 66% | 45% | 60% | –
O=c1cc(-c2ccc(N3CCCC3)cc2)oc(N2CCOCC2)c1 [Compound 23, 2-(4-Morpholinyl)-6-4-(1-pyrrolidinyl)phenyl-4H-pyran-4-one] | 0.25 µM | – | 20% | 50% | –
O=c1cc(-c2ccccc2)oc(N2CCOCC2)c1 [Compound 3, 2-(4-Morpholinyl)-6-phenyl-4H-pyran-4-one] | 28 µM | – | 45% | 50% | –
O=c1cc(-c2ccccc2OCc2ccccc2)oc(N2CCOCC2)c1 [Compound 9, 2-(4-Morpholinyl)-6-(2-(phenylmethoxy)phenyl)-4H-pyran-4-one] | 11.6 µM | 88% | 60% | 65% | –
CCCCC(Oc1ccc(-c2cc(=O)cc(N3CCOCC3)o2)cc1)c1ccccc1 (stereo not shown) [Compound 11, 2-(4-Morpholinyl)-6-(4-((1-phenylpentyl)oxy)phenyl)-4H-pyran-4-one] | 22.9 µM | – | 10% | 10% | –
O=c1cc(-c2ccc(O)cc2)oc(N2CCOCC2)c1 [Compound 1, 2-(4-Hydroxyphenyl)-6-(4-morpholinyl)-4H-pyran-4-one] | 29.4 µM | 54% | 75% | 95% | –
O=c1cc(-c2ccc(OCc3cccnc3)cc2)oc(N2CCOCC2)c1 [Compound 5, 2-(4-Morpholinyl)-6-(4-(3-pyridinylmethoxy)phenyl)-4H-pyran-4-one] | 11.2 µM | 77% | 40% | 55% | –
O=c1cc(-c2ccc(CN3CCCCC3)cc2)oc(N2CCOCC2)c1 [Compound 18, 2-(4-morpholinyl)-6-(4-(1-piperidinylmethyl)phenyl)-4H-pyran-4-one] | – | 8% | 10% | 18% | –
O=c1cc(CN2CCOCC2)oc(-c2ccc(OCc3ccccc3)cc2)c1 [Compound 12] | 41 µM | 36% | 0% | 0% | –
O=c1cc(-c2cccc(OCc3ccccc3)c2)oc(N2CCOCC2)c1 [Compound 15, 2-(4-morpholinyl)-6-(3-(phenylmethoxy)phenyl)-4H-pyran-4-one] | 9.1 µM | 96% | 0% | 0% | –
O=c1cc(-c2ccc(OCc3ccc4ccccc4n3)cc2)oc(N2CCOCC2)c1 [Compound 8, 2-(4-Morpholinyl)-6-(4-(2-quinolinylmethoxy)phenyl)-4H-pyran-4-one] | 6.8 µM | – | 35% | 35% | –
O=c1cc(-c2ccc(OCc3ccccn3)cc2)oc(N2CCOCC2)c1 [Compound 6, 2-(4-Morpholinyl)-6-(4-(2-pyridinylmethoxy)phenyl)-4H-pyran-one] | 14.8 µM | 72% | 25% | 40% | –
O=c1cc(-c2ccc(CO)cc2)oc(N2CCOCC2)c1 [Compound 17, 2-(4-(hydroxymethyl)phenyl)-6-(4-morpholinyl)-4H-pyran-4-one] | – | 20% | 0% | 0% | –
Nc1ccc(-c2cc(=O)cc(N3CCOCC3)o2)cc1 [Compound 25, 2-(4-Aminophenyl)-6-(4-morpholinyl)-4H-pyran-4-one] | 18.7 µM | – | 45% | 55% | –
O=c1cc(-c2ccc(F)cc2)oc(N2CCOCC2)c1 [Compound 22, 2-(4-Fluorophenyl)-6-(4-morpholinyl)-4H-pyran-4-one] | > 20 µM | 25% | 42% | 61% | –
O=c1cc(-c2ccccc2O)oc(N2CCOCC2)c1 [Compound 10, 2-(2-Hydroxyphenyl)-6-(4-morpholinyl)-4H-pyran-4-one] | 62.2 µM | 34% | – | – | –
O=c1cc(-c2ccc(CN3CCCCC3CO)cc2)oc(N2CCOCC2)c1 (stereo not shown) [Compound 21, 2-(4-((2-(hydroxymethyl)-1-piperidinyl)methyl)phenyl)-6-(4-morpholinyl)-4H-pyran-4-one] | – | 13% | 10% | 10% | –
O=c1cc(-c2cccc(O)c2)oc(N2CCOCC2)c1 [Compound 16, 2-(3-hydroxyphenyl)-6-(4-morpholinyl)-4H-pyran-4-one] | 28.5 µM | 73% | 5% | 44% | –
O=c1cc(CN2CCOCC2)oc(-c2ccc(O)cc2)c1 [Compound 14, 2-(4-hydroxyphenyl)-6-(4-morpholinylmethyl)-4H-pyran-4-one] | – | 0% | 0% | 0% | no measurable antiproliferation or inhibition activity
CN1CCN(Cc2ccc(-c3cc(=O)cc(N4CCOCC4)o3)cc2)CC1 [Compound 20, 2-(4-((4-methyl-1-piperazinyl)methyl)phenyl)-6-(4-morpholinyl)-4H-pyran-4-one] | – | 9% | 0% | 20% | –
O=c1cc(CN2CCCCC2)oc(-c2ccc(OCc3ccccc3)cc2)c1 [Compound 13] | – | 20% | 0% | 0% | –
O=c1cc(-c2ccc(N3CCCCC3)cc2)oc(N2CCOCC2)c1 [Compound 24, 2-(4-Morpholinyl)-6-4-(1-piperidinyl)phenyl-4H-pyran-4-one] | 0.48 µM | – | 10% | 50% | –
O=c1cc(-c2ccc(CN3CCCC3)cc2)oc(N2CCOCC2)c1 [Compound 19, 2-(4-morpholinyl)-6-(4-(1-pyrrolidinylmethyl)phenyl)-4H-pyran-4-one] | – | 12% | 5% | 10% | –
O=c1cc(-c2ccc(OCCN3CCCCC3)cc2)oc(N2CCOCC2)c1 [Compound 7, 2-(4-Morpholinyl)-6-((4-(2-(1-piperidinyl)ethyl)oxy)phenyl)-4H-pyran-4-one] | > 31.2 µM | 30% | 60% | 70% | –
O=c1cc(-c2ccc(OCc3ccccc3)cc2)oc(N2CCOCC2)c1 [Compound 2] | 6.9 µM | – | 10% | 15% | –
